Data reported in US20260078103A1, “ISOQUINOLONES AS PI3K INHIBITORS” (OnKure, Inc., priority 2022, published 2026).
Like-named read-outs stand apart in the source and are kept apart here.

Key:
Type in all cases: cell-based
[1] = tested on: T47D cells expressing mutant PI3Ka (H1047R); test: In vitro cell proliferation, T47D cells (CellTiter-Glo); conditions: inhibition of proliferation, read-out: Avg T-47D EC50
Method in brief: (§1)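 Proliferation was read by CellTiter-Glo luminescence after 72 h of exposure to 10-point compound dilutions at 37 °C and 5% CO2. T47D (RPMI, 10% FBS, insulin 0.2 units/mL) and SKBR3 (McCoys 5a, 10% FBS) cells were seeded at 1,500 cells/well. EC50 was fitted from inhibition relative to DMSO and 10 uM Alpelisib.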

[2] = tested on: SKBR3 cells express WT PI3Ka; test: In vitro cell proliferation, SKBR3 cells (CellTiter-Glo); conditions: inhibition of proliferation
Method in brief: as §1

[3] = tested on: phosphorylation of AKT (pAKT) in T47D cells expressing mutant PI3Ka (H1047R); test: In vitro cell pAKT (Ser473) HTRF, T47D cells; conditions: cellular pAKT, T47D cells, mutant PI3Ka (H1047R), 6 hours, read-out: Avg T-47D IC50
Method in brief: (§2)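 Cells seeded on plates pre-stamped with 10-point compound dilutions, then grown 6 h at 37 °C (T47D in RPMI/10% FBS/insulin; SKBR3 in McCoy's 5a/10% FBS). Lysates read for pAKT Ser473 by HTRF after overnight antibody incubation. Inhibition normalised to 0.1% DMSO and 10 uM alpelisib; IC50 by four-parameter fit.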

[4] = tested on: phosphorylation of AKT (pAKT) in SKBR3 cells express WT PI3Ka; test: In vitro cell pAKT (Ser473) HTRF, SKBR3 cells; conditions: cellular pAKT
Method in brief: as §2

Cc1cc([C@@H](C)Nc2ccccc2C(=O)O)c2cc(N3CCN(CCC(F)(F)F)CC3)n(C)c(=O)c2c1 [Example 264]
EC50 ([1]; 72 hours): 1 to 500 nM | EC50 ([2]; 72 hours): > 15000 nM | IC50 [3]: 1 to 500 nM | IC50 ([4]; 6 hours): > 15000 nM

Cc1cc([C@@H](C)Nc2ccccc2C(=O)O)c2cc(-c3cnc4ccoc4c3)n(C)c(=O)c2c1 [Example 265]
EC50 ([1]; Homo sapiens, T47D, 72 h): 1 to 500 nM | EC50 ([2]; Homo sapiens, SK-BR-3, 72 h): > 15000 nM | IC50 ([3]; Homo sapiens, T47D, 6 h): 1 to 500 nM | IC50 ([4]; Homo sapiens, SK-BR-3, 6 h): > 15000 nM

Cc1cc([C@@H](C)Nc2ccccc2C(=O)O)c2cc(-c3cnc(C(C)(C)F)c(F)c3)n(C)c(=O)c2c1 [Example 268]
EC50 ([1]; Homo sapiens, T47D, 72 h): 1 to 500 nM | EC50 ([2]; Homo sapiens, SK-BR-3, 72 h): > 15000 nM | IC50 ([3]; Homo sapiens, T47D, 6 h): 1 to 500 nM | IC50 ([4]; Homo sapiens, SK-BR-3, 6 h): > 15000 nM

Cc1cc([C@@H](C)Nc2ccc(F)cc2C(=O)O)c2cc(-c3cnc(C(C)(C)F)c(F)c3)n(C)c(=O)c2c1 [Example 269]
EC50 ([1]; 72 hours): 1 to 500 nM | EC50 ([2]; 72 hours): 2000 to 15000 nM | IC50 [3]: 1 to 500 nM | IC50 ([4]; 6 hours): 2000 to 15000 nM

Cc1cc([C@@H](C)Nc2ccccc2C(=O)O)c2cc(-c3cnc4occc4c3)n(C)c(=O)c2c1 [Example 270]
EC50 ([1]; Homo sapiens, T47D, 72 h): 500 to 2000 nM | EC50 ([2]; Homo sapiens, SK-BR-3, 72 h): > 15000 nM | IC50 ([3]; Homo sapiens, T47D, 6 h): 1 to 500 nM | IC50 ([4]; Homo sapiens, SK-BR-3, 6 h): > 15000 nM

Cc1cc([C@@H](C)Nc2ccc(F)c(F)c2C(=O)O)c2cc(N3CCN(CC(F)(F)F)CC3)n(C)c(=O)c2c1 [Example 272]
EC50 ([1]; 72 hours): 1 to 500 nM | EC50 ([2]; 72 hours): 2000 to 15000 nM | IC50 [3]: 1 to 500 nM | IC50 ([4]; 6 hours): 2000 to 15000 nM

Cc1cc([C@@H](C)Nc2ccccc2C(=O)O)c2cc(-c3cnn(C(C)(C)C#N)c3)n(C)c(=O)c2c1 [Example 273]
EC50 ([1]; Homo sapiens, T47D, 72 h): 500 to 2000 nM | EC50 ([2]; Homo sapiens, SK-BR-3, 72 h): > 15000 nM | IC50 ([3]; Homo sapiens, T47D, 6 h): 1 to 500 nM | IC50 ([4]; Homo sapiens, SK-BR-3, 6 h): > 15000 nM

Cc1cc([C@@H](C)Nc2cnsc2C(=O)O)c2cc(N3CCN(CC(F)(F)F)CC3)n(C)c(=O)c2c1 [Example 274]
EC50 ([1]; Homo sapiens, T47D, 72 h): 2000 to 15000 nM | EC50 ([2]; Homo sapiens, SK-BR-3, 72 h): > 15000 nM | IC50 ([3]; Homo sapiens, T47D, 6 h): 2000 to 15000 nM | IC50 ([4]; Homo sapiens, SK-BR-3, 6 h): > 15000 nM

Cc1cc([C@@H](C)Nc2ccccc2C(=O)O)c2cc(-c3cnc(C)cn3)n(C)c(=O)c2c1 [Example 275]
EC50 ([1]; Homo sapiens, T47D, 72 h): 1 to 500 nM | EC50 ([2]; Homo sapiens, SK-BR-3, 72 h): > 15000 nM | IC50 ([3]; Homo sapiens, T47D, 6 h): 1 to 500 nM | IC50 ([4]; Homo sapiens, SK-BR-3, 6 h): > 15000 nM

Cc1cc([C@@H](C)Nc2ccccc2C(=O)O)c2cc(-c3cnc(C(C)C)nc3)n(C)c(=O)c2c1 [Example 276]
EC50 ([1]; Homo sapiens, T47D, 72 h): 1 to 500 nM | EC50 ([2]; Homo sapiens, SK-BR-3, 72 h): > 15000 nM | IC50 ([3]; Homo sapiens, T47D, 6 h): 1 to 500 nM | IC50 ([4]; Homo sapiens, SK-BR-3, 6 h): > 15000 nM

COC(C)(C)c1ncc(-c2cc3c([C@@H](C)Nc4ccccc4C(=O)O)cc(C)cc3c(=O)n2C)cc1F [Example 277]
EC50 ([1]; 72 hours): 1 to 500 nM | EC50 ([2]; 72 hours): 2000 to 15000 nM | IC50 [3]: 1 to 500 nM | IC50 ([4]; 6 hours): 2000 to 15000 nM

Cc1cc([C@@H](C)Nc2ccccc2C(=O)O)c2cc(-c3cnc(OC4CC4)c(F)c3)n(C)c(=O)c2c1 [Example 281]
EC50 ([1]; Homo sapiens, T47D, 72 h): 1 to 500 nM | EC50 ([2]; Homo sapiens, SK-BR-3, 72 h): > 15000 nM | IC50 ([3]; Homo sapiens, T47D, 6 h): 1 to 500 nM | IC50 ([4]; Homo sapiens, SK-BR-3, 6 h): > 15000 nM

Cc1cc([C@@H](C)Nc2ccccc2C(=O)O)c2cc(-c3cnc(COC(F)(F)F)c(F)c3)n(C)c(=O)c2c1 [Example 282]
EC50 ([1]; Homo sapiens, T47D, 72 h): 1 to 500 nM | EC50 ([2]; Homo sapiens, SK-BR-3, 72 h): 2000 to 15000 nM | IC50 ([3]; Homo sapiens, T47D, 6 h): 1 to 500 nM | IC50 ([4]; Homo sapiens, SK-BR-3, 6 h): > 15000 nM

Cc1cc([C@@H](C)Nc2ccccc2C(=O)O)c2cc(-c3cnc(C(C)(C)F)nc3)n(C)c(=O)c2c1 [Example 283]
EC50 ([1]; Homo sapiens, T47D, 72 h): 1 to 500 nM | EC50 ([2]; Homo sapiens, SK-BR-3, 72 h): > 15000 nM | IC50 ([3]; Homo sapiens, T47D, 6 h): 1 to 500 nM | IC50 ([4]; Homo sapiens, SK-BR-3, 6 h): > 15000 nM

CCOc1ncc(-c2cc3c([C@@H](C)Nc4ccccc4C(=O)O)cc(C)cc3c(=O)n2C)s1 [Example 284]
EC50 ([1]; Homo sapiens, T47D, 72 h): 1 to 500 nM | EC50 ([2]; Homo sapiens, SK-BR-3, 72 h): > 15000 nM | IC50 ([3]; Homo sapiens, T47D, 6 h): 1 to 500 nM | IC50 ([4]; Homo sapiens, SK-BR-3, 6 h): 2000 to 15000 nM

Cc1cc([C@@H](C)Nc2ccccc2C(=O)O)c2c(F)c(N3CCN(CC(F)(F)F)CC3)n(C)c(=O)c2c1 [Example 285]
EC50 ([1]; Homo sapiens, T47D, 72 h): 1 to 500 nM | EC50 ([2]; Homo sapiens, SK-BR-3, 72 h): 2000 to 15000 nM | IC50 ([3]; Homo sapiens, T47D, 6 h): 1 to 500 nM | IC50 ([4]; Homo sapiens, SK-BR-3, 6 h): 2000 to 15000 nM

Cc1cc([C@@H](C)Nc2ccccc2C(=O)O)c2cc(-c3cnc(C(F)(F)F)nc3)n(C)c(=O)c2c1 [Example 288]
EC50 ([1]; Homo sapiens, T47D, 72 h): 1 to 500 nM | EC50 ([2]; Homo sapiens, SK-BR-3, 72 h): > 15000 nM | IC50 ([3]; Homo sapiens, T47D, 6 h): 1 to 500 nM | IC50 ([4]; Homo sapiens, SK-BR-3, 6 h): > 15000 nM

Cc1cc([C@@H](C)Nc2ccccc2C(=O)O)c2cc(-c3cnc(CF)c(F)c3)n(C)c(=O)c2c1 [Example 289]
EC50 ([1]; 72 hours): 1 to 500 nM | EC50 ([2]; 72 hours): > 15000 nM | IC50 [3]: 1 to 500 nM | IC50 ([4]; 6 hours): > 15000 nM

Cc1cc([C@@H](C)Nc2ccccc2C(=O)O)c2cc(-c3cnc(C(F)F)c(F)c3)n(C)c(=O)c2c1 [Example 290]
EC50 ([1]; Homo sapiens, T47D, 72 h): 1 to 500 nM | EC50 ([2]; Homo sapiens, SK-BR-3, 72 h): > 15000 nM | IC50 ([3]; Homo sapiens, T47D, 6 h): 1 to 500 nM | IC50 ([4]; Homo sapiens, SK-BR-3, 6 h): > 15000 nM

Cc1cc([C@@H](C)Nc2ccccc2C(=O)O)c2cc(-c3cnc(C(C)(F)F)c(F)c3)n(C)c(=O)c2c1 [Example 291]
EC50 ([1]; Homo sapiens, T47D, 72 h): 1 to 500 nM | EC50 ([2]; Homo sapiens, SK-BR-3, 72 h): > 15000 nM | IC50 ([3]; Homo sapiens, T47D, 6 h): 1 to 500 nM | IC50 ([4]; Homo sapiens, SK-BR-3, 6 h): > 15000 nM
